Experimental findings from ChEMBL document CHEMBL6087461, “Cell-Permeable Peptide Inhibitors of the p53-hDM2 Interaction via Foldamer Helix Mimicry and Bis-Thioether Stapling” (J Med Chem, 2025) are described below.

The source made the active and inactive calls. The rule behind the calls is not given here. Starred links: 1 amine or outer side, 2 acyl side, 3 side chain; linkers in the order of their positions; H or OH if unused. Positions of bridges follow the written chain, without caps; N, C: chain ends. Residues, ends and D or L forms follow the SMILES beside them. X1 = CC(C)[C@@H](CNC(N)=O)NC(=O)NC[C@H](C)NC(=O)NC[C@H](CSCCCCCC[*:1])N[*:2]

Test [1] deals with HCT-116. The test is described as follows: Effect on increase in p21 RNA level in human HCT-116 cells at 10 uM measured after 6 hrs by RT-qPCR analysis. It counts as functional, cell-based. (In general: In qPCR the cycle at which signal appears reflects the starting amount.)
For test [2], the system named is HCT-116. Put plainly: Effect on increase in […] RNA level in human HCT-116 cells at 10 uM measured after 6 hrs by RT-qPCR analysis. In kind it is functional, cell-based.
Test [3] can be described thus: PROTAC activity at human DM2/p53 extracted from Escherichia coli interaction by measuring inhibition of interaction by time-resolved fluorescence energy transfer (TRFRET) detection method.
Test [4] deals with Tumour suppressor protein p53/Mdm4 (Homo sapiens, UniProt O15151). The test is described as follows: PROTAC activity at human DMX/p53 extracted from Escherichia coli interaction by measuring inhibition of interaction by time-resolved fluorescence energy transfer (TRFRET) detection method. It counts as protein assay. (In general: TR-FRET usually uses a lanthanide donor and a delayed reading to cut background.)
Tumour suppressor protein p53/Mdm4, sequence (P04637 whole entry): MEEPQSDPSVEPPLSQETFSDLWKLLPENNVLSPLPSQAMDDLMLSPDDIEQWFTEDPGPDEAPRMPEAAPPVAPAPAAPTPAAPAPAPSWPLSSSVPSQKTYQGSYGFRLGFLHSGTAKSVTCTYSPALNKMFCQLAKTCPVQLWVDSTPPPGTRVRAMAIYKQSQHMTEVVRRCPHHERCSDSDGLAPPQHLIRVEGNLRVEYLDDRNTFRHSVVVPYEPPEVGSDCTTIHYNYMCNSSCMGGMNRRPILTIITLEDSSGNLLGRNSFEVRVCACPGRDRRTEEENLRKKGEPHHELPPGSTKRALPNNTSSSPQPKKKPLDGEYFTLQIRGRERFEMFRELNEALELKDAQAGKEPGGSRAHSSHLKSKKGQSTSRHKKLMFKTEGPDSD
Tumour suppressor protein p53/Mdm4, sequence (O15151 whole entry): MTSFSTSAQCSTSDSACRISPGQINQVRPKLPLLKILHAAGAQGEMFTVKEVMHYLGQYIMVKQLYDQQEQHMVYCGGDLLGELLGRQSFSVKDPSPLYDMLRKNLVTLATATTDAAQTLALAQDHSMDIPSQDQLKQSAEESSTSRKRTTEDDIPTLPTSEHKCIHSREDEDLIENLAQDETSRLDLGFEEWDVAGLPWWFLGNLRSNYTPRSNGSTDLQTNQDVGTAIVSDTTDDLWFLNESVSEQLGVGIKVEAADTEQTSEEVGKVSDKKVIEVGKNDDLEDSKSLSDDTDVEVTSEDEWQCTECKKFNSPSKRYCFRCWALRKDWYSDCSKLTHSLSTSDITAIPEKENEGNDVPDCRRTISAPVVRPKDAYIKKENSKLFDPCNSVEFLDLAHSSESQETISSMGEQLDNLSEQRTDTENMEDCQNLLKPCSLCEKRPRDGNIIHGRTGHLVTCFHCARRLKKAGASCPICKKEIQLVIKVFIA

Test [5] has as its system HCT-116. Put plainly: Induction of p53 level in human HCT-116 cells expressing wild type p53 measured after 6 hrs by Western blotting analysis. In kind it is functional, cell-based. The following applies: dose 0.1-40 µM. For orientation: Immunoblotting shows a protein as a band on a membrane.
Test [6] concerns HCT-116. Put plainly: Induction of P21 RNA level in human HCT-116 cells expressing wild type p53 measured after 6 hrs by RT-qPCR analysis. In kind it is functional, cell-based. Particulars: dose 0.1-10 µM.
Test [7] relates to HCT-116. Put plainly: Induction of hDM2 RNA level in human HCT-116 cells expressing wild type p53 measured after 6 hrs by RT-qPCR analysis. It counts as functional, cell-based. Particulars: dose 0.1-10 µM.
Test [8] has as its system HCT-116. Put plainly: Cytotoxicity against human HCT-116 cells assessed as cell viability at 0.1 to 40 uM measured after 2 hrs incubation by LDH release assay. In kind it is functional, cell-based. The following applies: dose 0.1-40 µM.
The target of test [9] is Tumour suppressor p53/oncoprotein Mdm2 (Homo sapiens) (UniProt P04637+Q00987). Put plainly: PROTAC activity at human MDM2/p53 extracted from Escherichia coli interaction by measuring inhibition of interaction at 100 nM by time-resolved fluorescence energy transfer (TRFRET) detection method relative to control. In kind it is protein assay.
Tumour suppressor p53/oncoprotein Mdm2 (Homo sapiens), sequence (P04637 whole entry, looked up): as the sequence (P04637 whole entry) above
Tumour suppressor p53/oncoprotein Mdm2 (Homo sapiens), sequence (Q00987 whole entry, looked up): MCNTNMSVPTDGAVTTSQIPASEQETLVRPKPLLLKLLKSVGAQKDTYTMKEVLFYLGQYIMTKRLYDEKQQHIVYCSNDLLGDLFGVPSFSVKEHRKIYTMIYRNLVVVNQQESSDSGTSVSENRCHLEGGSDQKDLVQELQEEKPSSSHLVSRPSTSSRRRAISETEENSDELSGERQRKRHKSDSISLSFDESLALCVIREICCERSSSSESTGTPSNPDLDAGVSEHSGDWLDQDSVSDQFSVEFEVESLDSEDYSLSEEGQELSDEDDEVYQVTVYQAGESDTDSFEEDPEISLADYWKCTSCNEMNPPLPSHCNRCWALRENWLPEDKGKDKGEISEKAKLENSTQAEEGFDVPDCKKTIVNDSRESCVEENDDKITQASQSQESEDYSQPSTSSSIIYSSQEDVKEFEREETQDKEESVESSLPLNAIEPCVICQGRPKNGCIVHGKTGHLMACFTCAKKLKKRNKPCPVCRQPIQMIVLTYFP
Test [10] concerns the target Tumour suppressor protein p53/Mdm4 (Homo sapiens) (UniProt P04637+O15151). Put plainly: PROTAC activity at human DMX/p53 extracted from Escherichia coli interaction at 100 nM by measuring inhibition of interaction by time-resolved fluorescence energy transfer (TRFRET) detection method relative to control. It counts as protein assay.
Test [11] has as its system SW480. Put plainly: Cytotoxicity against human SW480 cells expressing […] assessed as cell viability at 0.1 to 40 uM measured after 72 hrs incubation by MTS cell viability assay. The following applies: dose 0.1-40 µM. In kind it is functional, cell-based.

Tumour suppressor protein p53/Mdm4 (Homo sapiens), sequence (O15151 whole entry, looked up): as the sequence (O15151 whole entry) above
Tumour suppressor protein p53/Mdm4 (Homo sapiens), sequence (P04637 whole entry, looked up): as the sequence (P04637 whole entry) above

Regarding `COc1ccc(C2=N[C@@H](c3ccc(Cl)cc3)[C@@H](c3ccc(Cl)cc3)N2C(=O)N2CCNC(=O)C2)c(OC(C)C)c1`, the result in test [1] and in test [2] was Active.

What is called IC50 is the concentration that gives 50% inhibition. The low end stands for greater potency, the high end for weaker potency. Turning to `CC(=O)N[C@@H](CCCCN)C(=O)N[C@H](C(=O)N[C@@H](Cc1ccccc1)C(=O)N[C@H]1CSCCCCCCSC[C@@H](CNC(=O)N[C@@H](C)CNC(=O)N[C@H](CNC(N)=O)C(C)C)NC(=O)[C@H](Cc2c[nH]c3ccccc23)NC(=O)[C@H](Cc2ccc(O)cc2)NC(=O)[C@H](CCC(=O)O)NC1=O)[C@@H](C)O` (Ac-KTFCEYW; linker 4-C via X1), the IC50 in test [3] was 0.00924 µM; in [4] it was 73.3 µM. Also, the Activity entry was “Dose-dependent-effect; Similar To Nutlin-3A” in test [5], “Dose-dependent-effect” in [6], “Dose-dependent-effect” in test [7] and “Not active; Indicating Absence Of Direct Effect On Cell Membranes” in test [8].

Consider `CC(=O)N[C@@H](CC(C)C)C(=O)N[C@H](C(=O)N[C@@H](Cc1ccccc1)C(=O)N[C@H]1CSCCCCCCSC[C@@H](CNC(=O)N[C@@H](C)CNC(=O)N[C@H](CNC(N)=O)C(C)C)NC(=O)[C@H](Cc2c[nH]c3ccccc23)NC(=O)[C@H](Cc2ccc(O)cc2)NC(=O)[C@H](CCC(=O)O)NC1=O)[C@@H](C)O` (Ac-LTFCEYW; linker 4-C via X1), for which the IC50 in [3] is 0.0158 µM; in test [4], 262 µM. In addition, the Activity result is “Dose-dependent-effect; Similar To Nutlin-3A And Able To Increase As Low As 0.5 Um” in [5], “Dose-dependent-effect” in test [6], “Dose-dependent-effect” in test [7] and “Not active; Indicating Absence Of Direct Effect On Cell Membranes” in test [8].

For `CC(C)[C@@H](CNC(N)=O)NC(=O)NC[C@H](C)NC(=O)NC[C@@H]1CSCCCCCCSC[C@H](NC(=O)[C@H](Cc2ccccc2)NC(=O)[C@H](CO)NC(=O)[C@H](CCCCN)NC(=O)[C@@H](N)CCCCN)C(=O)N[C@@H](CCC(=O)O)C(=O)N[C@@H](Cc2ccc(O)cc2)C(=O)N[C@@H](Cc2c[nH]c3ccccc23)C(=O)N1` (H-KKSFCEYW; linker 5-C via X1), in test [9], the inhibition result was “inactive”. Besides, the result in [10] was inactive. Also, the IC50 in test [3] was found to be 0.00895 µM; in test [4], 45.4 µM. The outcome in test [11] was Active.

Consider `CC(C)[C@@H](CNC(N)=O)NC(=O)NC[C@H](C)NC(=O)NC[C@@H]1CSCCCCCCSC[C@H](NC(=O)[C@H](Cc2ccccc2)NC(=O)[C@H](CO)NC(=O)[C@@H](NC(=O)[C@H](CCCCN)NC(=O)[C@@H](N)CCCCN)[C@@H](C)O)C(=O)N[C@@H](CCC(=O)O)C(=O)N[C@@H](Cc2ccc(O)cc2)C(=O)N[C@@H](Cc2c[nH]c3ccccc23)C(=O)N1` (H-KKTSFCEYW; linker 6-C via X1), for which, in test [9], the inhibition result was “inactive”. The outcome in [10] was inactive. The IC50 was 0.0102 µM in [3] and 62.7 µM in test [4]. Moreover, the outcome in [11] was Active.
